Data on 22 compounds can be found in patent publication US11472766B2, “Lipid nanoparticle composition” (Suzhou Abogen Biosciences Co., Ltd., priority 2020, dated 2022).

The test system of series [1] is human erythropoietin (hEPO) mRNA. The series can be described thus: Animal study: hEPO expression after tail vein injection of LNPs encapsulating hEPO mRNA (serum ELISA). Format: in vivo. To be noted: hEPO level, female ICR mice, 0.5 mg/kg, 6 hours post administration; for Expression at 6 h (μg/ml): class symbols, Table 3. The protocol: Lipid nanoparticles comprising compounds 1-10 encapsulating human erythropoietin (hEPO) mRNA were systemically administered to 6-8 week old female ICR mice (Xipuer-Bikai, Shanghai) at 0.5 mg/kg dose by tail vein injection and mice blood were sampled at specific time points (e.g., 6 hours) post administration. In addition to the aforementioned tested groups, lipid nanoparticles comprising dilinoleylmethyl-4-dimethylaminobutyrate (DLin-MC3-DMA, usually abbreviated to MC3) encapsulating hEPO mRNA were similarly administered at the same dose to age and gender comparative groups of mice as a positive control.
Mice were euthanized by CO2 overdoses after the last sampling time point. Serum were separated from total blood by centrifugation at 5000 g for 10 minutes at 4° C., snap-frozen and stored at −80° C. for analysis. ELSA assay were carried out using a commercial kit (DEP00, R&D systems) according to manufacturer's instructions.
Characteristics of tested lipid nanoparticles, including hEPO expression levels (μg/ml) measured from the tested group are listed the tables below and plotted in FIG. 2.

The nature of series [2]: Lipid nanoparticle size by dynamic light scattering (Malvern Zetasizer Nano ZS). Format: physicochemical. To be noted: LNP: cationic lipid/DSPC/cholesterol/PEG-lipid 50:10:38.5:1.5, hEPO mRNA. The protocol: (§1) Briefly, a cationic lipid provided herein, DSPC, cholesterol, and PEG-lipid were solubilized in ethanol at a molar ratio of 50:10:38.5:1.5, and mRNA were diluted in 10 to 50 mM citrate buffer, pH=4. The LNPs were prepared at a total lipid to mRNA weight ratio of approximately 10:1 to 30:1 by mixing the ethanolic lipid solution with the aqueous mRNA solution at a volume ratio of 1:3 using a microfluidic apparatus, total flow rate ranging from 9-30 mL/min. Ethanol were thereby removed and replaced by DPBS using dialysis. Finally, the lipid nanoparticles were filtered through a 0.2 μm sterile filter.
(§2) Lipid nanoparticle size were determined by dynamic light scattering using a Malvern Zetasizer Nano ZS (Malvern UK) using a 173° backscatter detection mode. The encapsulation efficiency of lipid nanoparticles were determined using a Quant-it Ribogreen RNA quantification assay kit (Thermo Fisher Scientific, UK) according to the manufacturer's instructions.

The nature of series [3]: Encapsulation efficiency of lipid nanoparticles (Quant-it Ribogreen RNA quantification assay). Format: physicochemical. To be noted: LNP encapsulating hEPO mRNA. Here is the method: as §1, §2

Molecules are shown by their SMILES.

Regarding `CCCCCCCCC(CCCCCC)CNC(=O)CCCCCN(CCCCCC(=O)NCC(CCCCCC)CCCCCCCC)CCN(CCO)C1CC1` (stereo not shown) [Compound 119], in series [1], the “Expression at 6 h (μg/ml)” value is on record as “D (<0.1)”. In series [2] (Table 3), this compound showed a polydispersity of 0.06 and a size nm of 67.17 nm. Moreover, the “Encapsulation Efficiency” value in series [3] (Table 3) worked out at 93.2%.
As for `CCCCCCCCC(CCCCCC)COC(=O)CCCCCN(CCCCCC(=O)OCC(CCCCCC)CCCCCCCC)CCN(CC)C1CCC(O)CC1` (stereo not shown) [Compound 55], the “Expression at 6 h (μg/ml)” value in series [1] is “C (≥0.1 and <1)”. Also, in series [2] (Table 3), the polydispersity was found to be 0.109 and the size nm came out at 95.51 nm. Further, the “Encapsulation Efficiency” value in series [3] (Table 3) amounted to 96.7%.
Regarding `CCCCCCCCC(CCCCCC)COC(=O)CCCCCN(CCCCCC(=O)OCC(CCCCCC)CCCCCCCC)CCN1CCC(O)C1` (stereo not shown) [Compound 95], in series [1], the “Expression at 6 h (μg/ml)” value is on record as “D (<0.1)”. In series [2] (Table 3), this compound came in with a polydispersity of 0.285 and a size nm of 82.43 nm. In addition, in series [3] (Table 3), the “Encapsulation Efficiency” value turned out to be 97.2%.
`CCCCCCCCC(CCCCCC)CNC(=O)CCCCCN(CCCCCC(=O)NCC(CCCCCC)CCCCCCCC)CCN(CCO)C1CCCCCC1` (stereo not shown) [Compound 112]: in series [1], the “Expression at 6 h (μg/ml)” value is “C (≥0.1 and <1)”. In series [2] (Table 3), this compound displayed a polydispersity of 0.111 and a size nm of 49.51 nm. Moreover, the “Encapsulation Efficiency” value in series [3] (Table 3) was 95.9%.
With `CCCCCCCCCCC(CCCCCC)COC(=O)CCCCCCN(CCCCCCC(=O)OCC(CCCCCC)CCCCCCCCCC)CCN(CCO)C1CCC1` (stereo not shown) [Compound 43], the “Expression at 6 h (μg/ml)” value in series [1] was “B (≥1 and <2)”. In series [2] (Table 3), this compound registered a polydispersity of 0.068 and a size nm of 74.8 nm. Further, the “Encapsulation Efficiency” value in series [3] (Table 3) came out at 97.3%.
For `CCCCCCCCNC(=O)CCCCCN(CCCCCC(=O)NCCCCCCCC)CCN(CCO)C1CCCCC1` [Compound 123], the “Expression at 6 h (μg/ml)” value in series [1] is on record as “A (≥2)”. In series [2] (Table 3), this compound showed a polydispersity of 0.285 and a size nm of 264.9 nm. For the same compound, the “Encapsulation Efficiency” value in series [3] (Table 3) came out at 30.1%.
The like results for `CCCCCCCCC(CCCCCC)COC(=O)CCCCCN(CCCCCC(=O)OCC(CCCCCC)CCCCCCCC)CCN(CCOC(C)=O)C1CCC1` (stereo not shown) [Compound 64] were, in that order, “D (<0.1)”, 0.181, 84.93 nm and 84.1%.
As for `CCCCC/C=C\C/C=C\CCCCCCCCC(CCCCCCCC/C=C\C/C=C\CCCCC)OC(=O)CCCN(C)C` [MC3, dilinoleylmethyl-4-dimethylaminobutyrate, reference compound], in series [1] (Table 2), the “Expression at 6 h” value came to 2.35 µg/mL. Moreover, in series [2] (Table 2), the polydispersity is reported as 0.042 and the “size nm” value is recorded as 79.8 nm. In series [3] (Table 2), the “Encapsulation Efficiency” value came to 98.5%.
Consider `CCCCCCCCC(CCCCCCCC)COC(=O)CCCCCN(CCCCCC(=O)OCC(CCCCCCCC)CCCCCCCC)CCN(C)C1CCC(O)CC1` (stereo not shown) [Compound 73], for which the “Expression at 6 h (μg/ml)” value in series [1] was “C (≥0.1 and <1)”. For the same compound, in series [2] (Table 3), the polydispersity came to 0.027 and the size nm was 78.99 nm. In series [3] (Table 3), the “Encapsulation Efficiency” value stood at 93.1%.
As for `CCCCCCCCC(CCCCCC)COC(=O)CCCCCC(CCCCCC(=O)OCC(CCCCCC)CCCCCCCC)CN(CCO)C1CCCCCCC1` (stereo not shown) [Compound 17], the “Expression at 6 h (μg/ml)” value in series [1] was “D (<0.1)”. Moreover, in series [2] (Table 3), the polydispersity worked out at 0.209 and the size nm amounted to 57.6 nm. Further, the “Encapsulation Efficiency” value in series [3] (Table 3) is 18.18%.
On to `CCCCCCCCC(CCCCCC)COC(=O)CCCCCN(CCCCCC(=O)OCC(CCCCCC)CCCCCCCC)CCN1CC(O)C1` (stereo not shown) [Compound 97], for which the “Expression at 6 h (μg/ml)” value in series [1] is given as “D (<0.1)”. In series [2] (Table 3), the polydispersity was 0.204 and the size nm is 66.69 nm. In series [3] (Table 3), the “Encapsulation Efficiency” value was determined as 96.8%.
Regarding `CCCCCCCCC(CCCCCC)COC(=O)CCCCCN(CCCCCC(=O)OCC(CCCCCC)CCCCCCCC)C1CCN(CCO)CC1` (stereo not shown) [Compound 98], the “Expression at 6 h (μg/ml)” value in series [1] is given as “D (<0.1)”. In series [2] (Table 3), this compound came in with a polydispersity of 0.105 and a size nm of 86.23 nm. Further, the “Encapsulation Efficiency” value in series [3] (Table 3) stood at 97.6%.
As to `CCCCCCCCCCCCC(CCCCCC)COC(=O)CCCN(CCCC(=O)OCC(CCCCCC)CCCCCCCCCCCC)CCN(CCO)C1CCC1` (stereo not shown) [Compound 47], the “Expression at 6 h (μg/ml)” value in series [1] is “C (≥0.1 and <1)”. Moreover, in series [2] (Table 3), the polydispersity was 0.103 and the size nm is listed as 62.38 nm. Also, the “Encapsulation Efficiency” value in series [3] (Table 3) is 95.3%.
`CCCCCCCCC(CCCCCC)CC(=O)NCCCCCN(CCCCCOC(=O)CC(CCCCCC)CCCCCCCC)CCN(CCO)C1CCCC1` (stereo not shown) [Compound 130]: the “Expression at 6 h (μg/ml)” value in series [1] is recorded as “A (≥2)”. In series [2] (Table 3), this compound displayed a polydispersity of 0.097 and a size nm of 79.92 nm. Besides, the “Encapsulation Efficiency” value in series [3] (Table 3) was determined as 92.50%.
Regarding `CCCCCCCCC(CCCCCC)CC(=O)NCCCCCN(CCCCCOC(=O)CC(CCCCCC)CCCCCCCC)CCN(CCO)C1CCCCC1` (stereo not shown) [Compound 131], the “Expression at 6 h (μg/ml)” value in series [1] is recorded as “A (≥2)”. For the same compound, in series [2] (Table 3), the polydispersity stood at 0.064 and the size nm is given as 79.11 nm. Also, in series [3] (Table 3), the “Encapsulation Efficiency” value amounted to 80.00%.
The like results for `CCCCCCCCC(CCCCCC)COC(=O)CCCCCN(CCCCCC(=O)OCC(CCCCCC)CCCCCCCC)CCN(C)C1CCC(O)CC1` (stereo not shown) [Compound 54] were, in that order, “D (<0.1)”, 0.051, 102.7 nm and 97.2%.
The like results for `CCCCCCCCC(CCCCCCCC)COC(=O)CCCCCN(CCCCCC(=O)OCC(CCCCCCCC)CCCCCCCC)CCN(CCC)C1CCCCC1O` (stereo not shown) [Compound 69] were, in that order, “D (<0.1)”, 0.06, 58.74 nm and 78.3%.
Consider `CCCCCCCCC(CCCCCC)C(CCC)OC(=O)CCCCCN(CCCCCC(=O)OC(CCC)C(CCCCCC)CCCCCCCC)CCN(CCO)C1CCC1` (stereo not shown) [Compound 40], for which the “Expression at 6 h (μg/ml)” value in series [1] was “C (≥0.1 and <1)”. In series [2] (Table 3), the polydispersity was 0.081 and the size nm was found to be 66.39 nm. In series [3] (Table 3), the “Encapsulation Efficiency” value is 99.2%.
Regarding `CCCCCCCCC(CCCCCC)CNC(=O)CCCCCN(CCCCCC(=O)NCC(CCCCCC)CCCCCCCC)CCN(CCO)C1CCCCC1` (stereo not shown) [Compound 129], the “Expression at 6 h (μg/ml)” value in series [1] was “A (≥2)”. In series [2] (Table 3), this compound yielded a polydispersity of 0.131 and a size nm of 63.13 nm. Besides, the “Encapsulation Efficiency” value in series [3] (Table 3) was found to be 91.20%.
The like results for `CCCCCCCCC(CCCCCC)CNC(=O)CCCCCN(CCCCCC(=O)NCC(CCCCCC)CCCCCCCC)CCN(CCO)C1CCC1` (stereo not shown) [Compound 107] were, in that order, “A (≥2)”, 0.11, 106.9 nm and 95.64%.
In the case of `CCCCCCCCC(CCCCCC)COC(=O)CCCCCN(CCCCCC(=O)OCC(CCCCCC)CCCCCCCC)CCN(CCO)C1CCC(F)(F)CC1` (stereo not shown) [Compound 23], the “Expression at 6 h (μg/ml)” value in series [1] is “B (≥1 and <2)”. Also, in series [2] (Table 3), the polydispersity is 0.14 and the size nm was determined as 60.64 nm. Moreover, the “Encapsulation Efficiency” value in series [3] (Table 3) was 93.9%.
Consider `CCCCCCCCCCC(CCCCCCCCCC)COC(=O)CCCCCN(CCCCCC(=O)OCC(CCCCCCCCCC)CCCCCCCCCC)CCN(CCO)C1CCC1` [Compound 52], for which, in series [1], the “Expression at 6 h (μg/ml)” value is “A (≥2)”. In series [2] (Table 3), this compound had a polydispersity of 0.054 and a size nm of 69.18 nm. Further, the “Encapsulation Efficiency” value in series [3] (Table 3) came to 95.70%.
